Measured values as given in patent publication US12077503B2, “Substituted cyclic amides and their use as herbicides” (FMC CORPORATION, priority 2015, dated 2024).

Tests used:
Format in all cases: in vivo
[1] = test system: ragweed (common ragweed, Ambrosia elatior); assay: Test A postemergence; settings: Ambrosia artemisiifolia, post-emergence, 240 h, postemergence, read-out: Ragweed plant response rating
How it was run: (§1)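 Visual injury, scored on a 0–100 scale relative to untreated controls, was recorded about 10 d after application. Treatments were a preemergence soil spray over planted seeds or a postemergence spray on plants at the one- to two-leaf stage, 2 to 10 cm tall, all in loam soil–sand blend in the greenhouse.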

[2] = test system: ryegrass, Italian (Italian ryegrass, Lolium multiflorum); assay: Test A postemergence; settings: Lolium multiflorum, post-emergence, 240 h, postemergence, read-out: Ryegrass, Italian plant response rating
How it was run: as §1

[3] = test system: blackgrass (Alopecurus myosuroides); assay: Test A postemergence; settings: Alopecurus myosuroides, post-emergence, 240 h, postemergence, read-out: Blackgrass plant response rating
How it was run: as §1

[4] = test system: barnyardgrass (Echinochloa crus-galli); assay: Test A postemergence; settings: Echinochloa crus-galli, post-emergence, 240 h, postemergence, read-out: Barnyardgrass plant response rating
How it was run: as §1

Kochia (Kochia scoparia) [5] = assay: Test A postemergence; settings: Bassia scoparia, post-emergence, 240 h, postemergence, read-out: Kochia plant response rating
How it was run: as §1

[6] = test system: wheat (Triticum aestivum); assay: Test A postemergence; settings: Triticum aestivum, post-emergence, 240 h, postemergence, read-out: Wheat plant response rating
How it was run: as §1

[7] = test system: giant foxtail (Setaria faberii); assay: Test A postemergence; settings: Setaria faberi, post-emergence, 240 h, postemergence, read-out: Foxtail, Giant plant response rating
How it was run: as §1

[8] = test system: Galium (catchweed bedstraw, Galium aparine); assay: Test A postemergence; settings: Galium, post-emergence, 240 h, postemergence, read-out: Galium plant response rating
How it was run: as §1

corn (Zea mays) = assay: Test A postemergence; settings: Zea mays, post-emergence, 240 h, postemergence, read-out: Corn plant response rating
How it was run: as §1

[9] = test system: ragweed (common ragweed, Ambrosia elatior); assay: Test A preemergence; settings: Ambrosia artemisiifolia, pre-emergence, 240 h, preemergence, read-out: Ragweed plant response rating
How it was run: as §1

[10] = test system: ryegrass, Italian (Italian ryegrass, Lolium multiflorum); assay: Test A preemergence; settings: Lolium multiflorum, pre-emergence, 240 h, preemergence, read-out: Ryegrass, Italian plant response rating
How it was run: as §1

[11] = test system: barnyardgrass (Echinochloa crus-galli); assay: Test A preemergence; settings: Echinochloa crus-galli, pre-emergence, 240 h, preemergence, read-out: Barnyardgrass plant response rating
How it was run: as §1

[12] = test system: pigweed (Amaranthus retroflexus); assay: Test A preemergence; settings: Amaranthus retroflexus, pre-emergence, 240 h, preemergence, read-out: Pigweed plant response rating
Kochia (Kochia scoparia) [13] = assay: Test A preemergence; settings: Bassia scoparia, pre-emergence, 240 h, preemergence, read-out: Kochia plant response rating
How it was run: as §1

[14] = test system: giant foxtail (Setaria faberii); assay: Test A preemergence; settings: Setaria faberi, pre-emergence, 240 h, preemergence, read-out: Foxtail, Giant plant response rating
How it was run: as §1

[15] = 125 g ai/ha, visual injury on 0 to 100 scale (0 no effect, 100 complete control), approx. 10 d
[16] = 500 g ai/ha, 0 to 100 scale, 0 is no effect, 100 is complete control
[17] = 125 g ai/ha, 0 to 100 scale where 0 is no effect and 100 is complete control, approx. 10 d
[18] = 500 g ai/ha, visual injury rating about 10 d after treatment, 0 to 100 scale (0 no effect, 100 complete control)

CN1C[C@H](c2cc(F)cc(F)c2)[C@@H](C(=O)Nc2cnccc2Cl)C1=O [Compound 1096]
0%: pest or weed control at 125 g/ha [1, 15] | pest or weed control at 500 g/ha [1, 16] | pest or weed control at 125 g/ha [2, 15] | pest or weed control at 500 g/ha [2, 16] | pest or weed control at 125 g/ha [3, 15] | pest or weed control at 500 g/ha [3, 16] | pest or weed control at 125 g/ha [4, 15] | pest or weed control at 500 g/ha [4, 16] | pest or weed control at 125 g/ha (Kochia (Kochia scoparia) [5]; [15]) | pest or weed control at 500 g/ha (Kochia (Kochia scoparia) [5]; [16]) | plant injury at 125 g/ha [6, 15] | plant injury at 500 g/ha [6, 16] | pest or weed control at 125 g/ha [7, 15] | pest or weed control at 500 g/ha [7, 16] | pest or weed control at 125 g/ha [8, 15] | pest or weed control at 500 g/ha [8, 16] | plant injury at 125 g/ha (corn (Zea mays); [15]) | plant injury at 500 g/ha (corn (Zea mays); [16]) | pest or weed control at 125 g/ha [9, 17] | pest or weed control at 500 g/ha [9, 18] | pest or weed control at 125 g/ha [10, 17] | pest or weed control at 500 g/ha [10, 18] | pest or weed control at 125 g/ha [11, 17] | pest or weed control at 500 g/ha [11, 18] | pest or weed control at 125 g/ha [12, 17] | pest or weed control at 500 g/ha [12, 18] | pest or weed control at 125 g/ha (Kochia (Kochia scoparia) [13]; [17]) | pest or weed control at 500 g/ha (Kochia (Kochia scoparia) [13]; [18]) | pest or weed control at 125 g/ha [14, 17] | pest or weed control at 500 g/ha [14, 18]
